Data from patent US8314268B2, “1-phenylalkanecarboxylic acid derivatives for the treatment of neurodegenerative diseases” (Chiesi Farmaceutici S.p.A., priority 2003, dated 2012).
Read-outs that look alike come from different tables or passages of the source.

Tests used:
[1] = tested on: Aβ42 release in H4-15× cells; test: Inhibition of Aβ42 release in the supernatant of H4-15× cells; format: cell-based, human; conditions: for inhibition at 100 µM: Homo sapiens, H415, overnight (14-16 hours) incubation; for % inhibition of Aβ42 release: 100 μM, overnight (14-16 hours) incubation
Procedure: H4-15× cells (human neuroglioma cells transfected with the human gene encoding for the precursor of β-amyloid protein APP695) were cultured in flasks (in incubator at 37° C., under aqueous vapour saturated atmosphere with 5% carbon dioxide), in the presence of hygromycin and blasticidin, which maintain the selective pressure for the cells continuously expressing the gene of interest.
When the cells reached about 90% confluency, they were collected and re-seeded in 24 wells plates (2×10^5 cells each), in 0.5 ml of complete culture medium. After approx. 24 hours, when the cells had adhered to the well surface and reached confluency, the medium of each well was replaced with 0.5 ml of fresh culture medium, supplemented with a compound (I) to 100 micromolar final concentration. Each tested concentration was repeated in triplicate. The molecules used for the treatment were previously dissolved in dimethylsulfoxide (DMSO) or in a dimethylsulfoxide/water mixture, the final concentration of DMSO in the wells not exceeding 1%. Thus the prepared plates were incubated again overnight (14-16 hours); afterwards the cell supernatant was taken from each well and Aβ42 and Aβ40 proteins were quantitated. The assay was carried out with an instrumentation for microplates chemoluminescence analysis, which allows to separately quantify the two proteins and is based on the immobilization of an analyte-antibody complex on paramagnetic microbeads. One of the antibodies of this complex is marked with a ruthenium compound which, upon electrochemical excitement, gives a light signal, having intensity proportional to the amount of analyte present.

cyclooxygenase-1 (COX-1) = target: T1, cyclooxygenase-1 (COX-1) (Rattus norvegicus, UniProt Q63921); test: Inhibition of cyclooxygenase-1 (COX-1) in rat whole blood (TxB2 production); format: cell-based; conditions: for inhibition at 100 µM: read-out: % COX-1 inhibitory activity
T1 construct: Aliquots of heparinized blood (500 μl) were preincubated with 100 μM concentration of the tested compounds; from tissue; host or cells: rat whole blood (heparinized, from the abdominal aorta)
T1 sequence (Q63921 27-602): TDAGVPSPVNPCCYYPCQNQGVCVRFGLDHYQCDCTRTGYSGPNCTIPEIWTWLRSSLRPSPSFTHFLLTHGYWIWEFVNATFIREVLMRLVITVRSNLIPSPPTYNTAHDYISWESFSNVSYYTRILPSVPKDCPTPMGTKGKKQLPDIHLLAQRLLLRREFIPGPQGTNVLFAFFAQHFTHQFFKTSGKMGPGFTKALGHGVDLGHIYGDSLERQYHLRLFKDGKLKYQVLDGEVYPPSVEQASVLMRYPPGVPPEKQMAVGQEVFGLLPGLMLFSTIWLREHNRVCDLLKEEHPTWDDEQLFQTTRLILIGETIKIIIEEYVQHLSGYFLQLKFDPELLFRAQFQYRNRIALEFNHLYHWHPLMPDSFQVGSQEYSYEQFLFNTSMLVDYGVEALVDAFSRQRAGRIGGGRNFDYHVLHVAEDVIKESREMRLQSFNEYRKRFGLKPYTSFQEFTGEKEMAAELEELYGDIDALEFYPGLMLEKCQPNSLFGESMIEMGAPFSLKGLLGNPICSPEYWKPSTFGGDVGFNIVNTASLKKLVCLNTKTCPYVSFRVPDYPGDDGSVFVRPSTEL
Procedure: Whole blood was taken from the rat abdominal aorta and immediately placed in heparinized tubes. Aliquots of heparinized blood (500 μl) were preincubated with 100 μM concentration of the tested compounds or with the only carrier (DMSO) for 1 h at 37° C. Eicosanoid production was induced by addition of calcium ionophore A23187 (final concentration 5×10^−5 M) and was interrupted after 30 minute incubation by quickly placing the samples in dry ice. Thereafter, samples were centrifuged (12000 g×3 minutes a 4° C.) and the production of TxB2 thromboxane B2 was calculated by radioimmunoassay.

[2] = 100 μM, rat whole blood, calcium ionophore A23187-induced TxB2 production

Row | Compound | inhibition at 100 µM (cyclooxygenase-1 (COX-1); [2]) | % COX-1 inhibitory activity (cyclooxygenase-1 (COX-1); [2]) | inhibition at 100 µM [1] | inhibition at 100 µM (cyclooxygenase-1 (COX-1)) | % inhibition of Aβ42 release [1]
1 | CC(C(=O)O)c1ccc(-c2ccccc2)c(F)c1 (centres unmarked) [Flurbiprofen, reference compound] |  |  | ~25% | 100% | 
2 | O=C(O)C1(c2ccc(-c3ccc(OC(F)(F)F)cc3)c(F)c2)CC1 [CHF 5046, 1-(2-fluoro-4′-trifluoromethoxybiphenyl-4-yl)cyclopropanecarboxylic acid] | 2.6% |  | 70.4% |  | 
3 | C#CCOc1ccc(-c2ccc(C3(C(=O)O)CC3)cc2F)cc1 [CHF 5078, 1-(2-fluoro-4′-prop-2-inyloxy-biphenyl-4-yl)-cyclopropanecarboxylic acid] |  | 3.6% |  |  | 57.5%
4 | O=C(O)C1CC1c1ccc(-c2ccc(-c3ccc(O)cc3)cc2)c(F)c1 (centres unmarked) [CHF 5083, 2-(2″-fluoro-4-hydroxy-[1,1′:4′,1″]tert-phenyl-4″-yl)-cyclopropanecarboxylic acid] |  |  |  |  | 81.1%
5 | O=C(O)C1(c2ccc(-c3ccc(F)c(Cl)c3)c(F)c2)CC1 [CHF 5076, 1-(3′-chloro-2,4′-difluorobiphenyl-4-yl)cyclopropanecarboxylic acid] | 5.5% |  | 71.4% |  | 
6 | O=C(O)C1(c2ccc(-c3ccc(F)c(F)c3)c(F)c2)CC1 [CHF 5073, 1-(2,3′,4′-trifluorobiphenyl-4-yl)cyclopropanecarboxylic acid] | 4.8% |  | 67.4% |  | 
7 | O=C(O)C1(c2ccc(-c3ccc(-c4ccc(O)cc4)cc3F)c(F)c2)CC1 [CHF 5107, 1-(2,2′-difluoro-4″-hydroxy[1,1′:4′,1″-tert-phenyl]-4-yl)-cyclopropane-carboxylic acid] |  | 1.1% |  |  | 83.3%
8 | O=C(O)C1(c2ccc(-c3cccc(C(F)(F)F)c3)c(F)c2)CC1 [CHF 5058, 1-(2-fluoro-3′-trifluoromethylbiphenyl-4-yl)cyclopropanecarboxylic acid] | 0% |  | 54.8% |  | 
9 | O=C(O)C1(c2ccc(-c3cccc(OC(F)(F)F)c3)c(F)c2)CC1 [CHF 5045, 1-(2-fluoro-3′-trifluoromethoxybiphenyl-4-yl)cyclopropanecarboxylic acid] | 8.3% |  | 56.4% |  | 
10 | CC(C)(C(=O)O)c1ccc(-c2ccc(C(F)(F)F)cc2)c(F)c1 [CHF 4810, 2-methyl-2(2-fluoro-4′-trifluoromethylbiphen-4-yl)propionic acid] |  |  | 58% |  | 
11 | O=C(O)C1(c2ccc(-c3ccc(-c4ccc(O)cc4)c(F)c3)c(F)c2)CC1 [CHF 5106, 1-(2,3′-difluoro-4″-hydroxy[1,1′:4′,1″-tert-phenyl]-4-yl)-cyclopropane-carboxylic acid] |  | 0.0% |  |  | 79.9%
12 | O=C(O)C1(c2ccc(-c3ccc(-c4ccc(F)cc4)cc3F)c(F)c2)CC1 [CHF 5105, 1-(2,2′,4″-trifluoro[1,1′:4′,1″-tert-phenyl]-4-yl)-cyclopropanecarboxylic acid] |  | 1.9% |  |  | 90.7%
13 | O=C(O)C1(c2ccc(-c3ccc(Cl)c(Cl)c3)c(F)c2)CC1 [CHF 5074, 1-(3′,4′-dichloro-2-fluorobiphenyl-4-yl)cyclopropanecarboxylic acid] | 0.5% |  | 79.2% |  | 

Continued, in another order:

Row | inhibition at 100 µM (cyclooxygenase-1 (COX-1); [2]) | % COX-1 inhibitory activity (cyclooxygenase-1 (COX-1); [2]) | Compound | inhibition at 100 µM [1] | inhibition at 100 µM (cyclooxygenase-1 (COX-1)) | % inhibition of Aβ42 release [1]
14 | 0.3% |  | O=C(O)C1(c2ccc(-c3ccc(C4CCOCC4)cc3)c(F)c2)CC1 [CHF 5080, 1-[2-fluoro-4′-(tetrahydropyran-4-yl)-biphenyl-4-yl]-cyclopropanecarboxylic acid] | 51.8% |  | 
15 | 6.1% |  | O=C1CCC(c2ccc(-c3ccc(C4(C(=O)O)CC4)cc3F)cc2)CC1 [CHF 5081, 1-[2-fluoro-4′-(4-oxo-cyclohexyl)-biphenyl-4-yl]-cyclopropanecarboxylic acid] | 52.3% |  | 
16 | 0% |  | O=C(O)C1(c2ccc(-c3ccc(O)cc3)c(F)c2)CC1 [CHF 5070, 1-(2-fluoro-4′-hydroxybiphenyl-4-yl)cyclopropanecarboxylic acid] | 22.4% |  | 
17 | 0% |  | O=C(O)C1(c2ccc(-c3ccc(C(F)(F)F)cc3)c(F)c2)CC1 [CHF 5022, 1-(2-fluoro-4′-trifluoromethylbiphenyl-4-yl)cyclopropanecarboxylic acid] | 55.4% |  | 
18 | 5.2% |  | CC(C)(C(=O)O)c1ccc(-c2ccc(C3CCCCC3)cc2)c(F)c1 [CHF 4961, 2-methyl-2(2-fluoro-4′cyclohexylbiphen-4-yl)propionic acid] | 76.6% |  | 
19 | 0.4% |  | O=C(O)C1(c2ccc(-c3ccc(OC4CCOCC4)cc3)c(F)c2)CC1 [CHF 5071, 1-[2-fluoro-4′-(tetrahydropyran-4-yloxy)biphenyl-4-yl]-cyclopropane-carboxylic acid] | 28.1% |  | 
20 | 0.8% |  | O=C(O)C1(c2ccc(-c3ccc(OC4CCC(C(F)(F)F)CC4)cc3)c(F)c2)CC1 (centres unmarked) [CHF 5096, 1-[2-fluoro-4′-[[4-(trifluoromethyl)cyclohexyl]oxy][1,1′-biphenyl]-4-yl]-cyclopropanecarboxylic acid] | 70% |  | 
